Test results from US4059692A, “Treating impaired consciousness with glutamyl-L-histidyl-L-prolinamide” (Takeda Chemical Industries, Ltd., priority 1975, dated 1977).
Counter-ions that a name gives are not always drawn.

System: human patient with impaired consciousness due to functional or organic damage of the brain
Assay: Clinical administration of TRH tartrate to human patients with impaired consciousness (case reports 1-8)
Format: in vivo
Conditions: for motor/behavioural recovery: 200 μg free TRH i.m. daily
Source text: The method of the present invention is applicable to human patients with impaired consciousness due to functional or organic damage to the brain, such as cranial trauma, brain surgery, cerebrovascular disorder, brain tumors and the like.
According to the present invention, TRH may be employed as the free base or in the form of a physiologically acceptable salt such as an acid addition salt e.g. a mineral acid salt (hydrochloride, sulphate, etc.) or an organic acid salt (acetate, tartrate, etc.). TRH tartrate is especially convenient for the administration. TRH or its salts are generally administered by the parenteral routes such as intravenous or intramuscular routes to the patients. The therapeutic dosage depends upon the route and upon the severity of impaired consciousness in each patient, and it may generally be chosen from within the range of from about 100 to about 5,000 μg. in terms of free TRH per adult human patient per day, more particularly from about 500 to about 5,000 μg. in terms of free TRH per adult human patient per day, when parenterally e.g. intravenously or intramuscularly administered. In case of those patients having swallowing capacity TRH or its salts may be orally administered. In this case, the dosage may be of course chosen from within the abovementioned range, but it may be increased over the said range, for example, up to about 150 mg. in terms of free TRH per adult human patient per day.
Child: Postoperative state of haematoma of right frontal lobe caused by cranial trauma.
Before administration, the patient was able to respond to only painful stimuli with a verbal expression of pain, otherwise being unconcious with a slight palpebral opening. Such conscious state lasted without modification for a further 10 days. The daily intramuscular injection of 292 μg. of TRH tartrate (dissolved in 0.8 ml of a sterile physiological saline; 200 μg. in terms of free TRH) successively for 10 days.
person: Postoperative state of metastatic brain tumor on right frontal and pariental lobes.
Craniotomy performed for the reduction of the intracranial pressure was followed by the gradual deterioration of consciousness. Therefore, TRH tartrate in the daily dose of 730 μg. (dissolved in 20 ml of 20% glucose; 500 μg. in terms of free TRH) was administered by intravenous drip infusion of 13 days.
Child: Brain contusion due to cranial trauma.
The child suffered from bodily contusion and loss of consciousness by collision on their bicycle with a train. At the time of hospitalization, the bilateral facilitation of the knee-jerk reflex was associated with the positive Babinski's reflex bilaterally. The daily administration of 730 μg.
Person: Post-operative state of glioblastoma.
The surgical resection of glioblastoma by cranitomy was gradually followed by a worsening of the general condition associated with impaired consciousness for 3 months.
person: Traumatic protracted coma.
The patient had been thrown from a motor bike and disturbance of consciousness had become apparent immediately after the accident. There was movement of the extremities and grimacing of the face in response to pain stimulus. The disturbance of consciousness continued thereafter and the disturbance had become fixed for 2 years prior to medication with TRH. TRH tartrate in the daily dose of 7,300 μg. (dissolved in 200 ml of electrolyte solution; 5,000 μg. in terms of free TRH) was administered by intravenous drip infusion. […] They also began to answer friends vocally with "Ah", "Ah". […] The medication was terminated at the 10th day.
person: Aneurysm of left cerebral artery.
After an attack of subarachnoid hemorrhage, it was noted that they had lost accessibility with people around them and volition, and that they had been in an abstract state. This condition had lasted for 1 month. TRH tartrate in the daily dose of 3,650 μg. […]

[1] = Case 3, 500 μg free TRH i.v. drip daily for 10 days

NC(=O)[C@@H]1CCCN1C(=O)[C@H](Cc1cnc[nH]1)NC(=O)[C@@H]1CCC(=O)N1 [TRH tartrate]
state of consciousness (response to interview) (Case 1: postoperative haematoma of right frontal lobe, 292 μg TRH tartrate (200 μg free TRH) intramuscular daily for 10 days, 5th day of treatment): prompt verbal reply with a smile to the interview by the doctor | motor/behavioural recovery (Case 1, 7th day): able to ride and sit by themself on a wheel-chair | motor/behavioural recovery (Case 1, 8th day (the next day)): able to go to a stool with support | motor/behavioural recovery and conversation (Case 1, one day after termination of the 10-day daily administration): able to sit by themself on the bed and to have a conversation with others | conscious state (Case 2: postoperative metastatic brain tumor, 730 μg TRH tartrate (500 μg free TRH) intravenous drip infusion daily, 13 days, 2nd day): significant improvement of the conscious state | orientation ability (Case 2, 500 μg free TRH i.v. drip daily, 2nd day): improvement of orientation ability | persistence of improved conscious state (Case 2, after termination of the TRH treatment): persist for about one month after the termination of the TRH treatment | Babinski's reflex (Case 3: brain contusion, 730 μg TRH tartrate (500 μg free TRH) i.v. drip daily for 10 days, 2nd day): sluggish appearance of Babinski's reflex | impaired consciousness [1]: began to be improved from the 4th day | impaired orientation [1]: markedly improved | Babinski's reflex (Case 3, 500 μg free TRH i.v. drip daily, 3rd day): disappearance on the 3rd day | final outcome (Case 3, after treatment): recovered without any neurological abnormality | motor recovery (Case 3, one day after termination of the daily administration): able to walk | palpebral opening and eyeball movement (Case 4: post-operative glioblastoma, 1,460 μg TRH tartrate (1,000 μg free TRH) i.v. drip daily for 10 days): prolonged the time-length of the palpebral opening from the 4th day | consciousness (Case 4, 1,000 μg free TRH i.v. drip daily for 10 days): remarkable improvement of the consciousness | response to vocal questioning (Case 5: traumatic protracted coma fixed for 2 years, 7,300 μg TRH tartrate (5,000 μg free TRH) i.v. drip daily, two days after start): began to respond with a sound to vocal questioning and turn the eyes towards the questioner | side effects (Case 5, 5,000 μg free TRH i.v. drip daily, 10 days treatment period): No side effects were observed | level of consciousness (Case 5, 5,000 μg free TRH i.v. drip daily, from about the fifth day): definite improvement in the level of consciousness | abstract state (Case 6: aneurysm of left cerebral artery, subarachnoid hemorrhage, 3,650 μg TRH tartrate (2,500 μg free TRH) i.v. drip daily for 10 days, third day): abstract state disappeared | side effects (Case 6, 2,500 μg free TRH i.v. drip daily for 10 days): No noteworthy side effects were observed | state of consciousness (Case 6, 2,500 μg free TRH i.v. drip daily, seventh day): restored close to normal | behavior and spontaneous activity (Case 7: sequelae of head trauma, 8.76 mg TRH tartrate (6 mg free TRH) orally daily for 2 weeks, from the third day): normalization of behavior and spontaneous activity | side effects (Case 7, 6 mg free TRH orally daily for 2 weeks): No side effects were noted | conversation with people (Case 7, 6 mg free TRH orally daily, after 1 week): began to actively converse with people around them | persistence of improvement in level of consciousness (Case 7, after medication was terminated at 2 weeks): improvement in the level of consciousness was retained | spontaneous activity / volition (Case 8: sequelae of head trauma, 17.52 mg TRH tartrate (12 mg free TRH) orally daily, after 2 weeks): began to actively watch television or play the pinball machine | agnosia and disorientation (Case 8, 12 mg free TRH orally daily, after 2 weeks): little change in the agnosia and disorientation | side effects (Case 8, 12 mg free TRH orally daily, during and after termination of medication): No side effects have been observed | condition after termination of medication (Case 8, medication terminated after 2 weeks, after 3 months): no marked change in the condition of the patient

NC(=O)[C@@H]1CCCN1C(=O)[C@H](Cc1c[nH]cn1)NC(=O)[C@@H]1CCC(=O)N1 [TRH, L-pyroglutamyl-L-histidyl-L-prolinamide]
impaired consciousness (overall) (Case 5, 5,000 μg (free TRH) per day, case had not responded to conventional treatment): significant improvement of impaired consciousness
